Source: patent US20140113874A1, “Modified Compstatin With Improved Stability And Binding Properties” (THE TRUSTEES OF THE UNIVERSITY OF PENNSYLVANIA, priority 2010, published 2014)
Blank lines part the entries; values can stand above or below the molecule they belong to. Numbered stars: 1 amine (or outer) side, 2 acyl side, 3 side chain; on linkers, the order of the positions; unused ones are H or OH. Bridge positions count the residues as written; N and C are the ends. Square brackets hold non-standard residues; d marks the D form. Peptide text beside a SMILES is read from it. Trp(1-Me) = Cn1cc(C[C@H](N)C(=O)O)c2ccccc21; Abu(4-yl) = O=C([C@H](CC[*:3])N[*:1])[*:2]; NMeI = CC[C@H](C)[C@H](NC)C(=O)O; Sar = CNCC(=O)O

How the values were obtained:
[1] = target: Biotinylated C3b (UniProt P01024); assay: SPR (Biacore 3000), single-cycle kinetics, peptide over biotinylated C3b captured on streptavidin chip, 1:1 model
[2] = target: C3b (Homo sapiens, UniProt P01024); assay: Biacore SPR kinetic analysis on captured biotinylated C3b; conditions: 1:1 binding model; average of multiple datasets
C3b, sequence (P01024 23-667 limits assumed): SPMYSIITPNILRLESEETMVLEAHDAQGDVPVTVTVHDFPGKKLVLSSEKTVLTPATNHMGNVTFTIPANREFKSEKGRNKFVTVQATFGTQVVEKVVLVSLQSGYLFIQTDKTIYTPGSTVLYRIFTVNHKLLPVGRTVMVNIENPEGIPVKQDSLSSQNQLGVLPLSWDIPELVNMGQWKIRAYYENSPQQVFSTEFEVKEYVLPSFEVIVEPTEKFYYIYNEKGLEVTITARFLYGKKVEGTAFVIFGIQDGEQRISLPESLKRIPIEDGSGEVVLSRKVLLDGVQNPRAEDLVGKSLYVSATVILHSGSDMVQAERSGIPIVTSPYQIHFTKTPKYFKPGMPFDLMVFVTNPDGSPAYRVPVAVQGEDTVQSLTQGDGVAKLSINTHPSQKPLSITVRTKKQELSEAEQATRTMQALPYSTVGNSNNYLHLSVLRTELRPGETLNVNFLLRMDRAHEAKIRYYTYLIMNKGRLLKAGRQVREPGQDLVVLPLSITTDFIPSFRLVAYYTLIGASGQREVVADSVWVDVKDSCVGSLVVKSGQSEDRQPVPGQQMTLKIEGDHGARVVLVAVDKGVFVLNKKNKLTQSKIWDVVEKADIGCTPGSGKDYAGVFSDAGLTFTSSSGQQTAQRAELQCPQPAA
C3b, sequence (P01024 749-1663 partner limits assumed): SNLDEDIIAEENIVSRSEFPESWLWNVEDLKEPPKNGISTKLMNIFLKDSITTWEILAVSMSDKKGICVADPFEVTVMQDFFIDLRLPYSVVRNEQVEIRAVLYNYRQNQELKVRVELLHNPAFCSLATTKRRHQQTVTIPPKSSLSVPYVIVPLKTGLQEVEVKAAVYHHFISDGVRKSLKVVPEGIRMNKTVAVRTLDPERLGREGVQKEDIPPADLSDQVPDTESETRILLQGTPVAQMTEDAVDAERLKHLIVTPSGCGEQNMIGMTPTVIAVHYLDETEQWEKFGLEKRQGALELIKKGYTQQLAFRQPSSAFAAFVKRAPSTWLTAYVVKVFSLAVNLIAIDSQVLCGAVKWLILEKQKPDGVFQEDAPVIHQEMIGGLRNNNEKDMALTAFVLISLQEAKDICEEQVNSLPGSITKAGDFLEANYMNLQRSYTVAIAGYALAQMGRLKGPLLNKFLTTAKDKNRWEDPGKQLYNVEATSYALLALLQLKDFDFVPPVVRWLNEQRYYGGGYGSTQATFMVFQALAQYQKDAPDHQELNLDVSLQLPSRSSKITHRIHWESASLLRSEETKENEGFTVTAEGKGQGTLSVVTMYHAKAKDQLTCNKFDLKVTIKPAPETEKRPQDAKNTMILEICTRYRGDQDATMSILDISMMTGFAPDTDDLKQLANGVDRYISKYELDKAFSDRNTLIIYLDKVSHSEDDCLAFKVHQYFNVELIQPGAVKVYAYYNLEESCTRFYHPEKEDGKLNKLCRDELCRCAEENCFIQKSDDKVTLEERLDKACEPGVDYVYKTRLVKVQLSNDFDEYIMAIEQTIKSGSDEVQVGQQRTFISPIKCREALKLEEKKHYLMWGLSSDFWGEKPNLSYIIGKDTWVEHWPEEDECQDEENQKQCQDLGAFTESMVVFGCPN
Description: The interaction of the compstatin analogs with C3b was characterized using a Biacore 3000 instrument (GE Healthcare, Corp., Piscataway, N.J.). The running buffer was PBS, pH 7.4 (10 mM sodium phosphate, 150 mM NaCl) with 0.005% Tween-20. Biotinylated C3b was captured site-specifically on a streptravidin chip at about 3000, 4000 and 5000 RU density; an untreated flowcell was used as a reference surface. For kinetic analysis, sets of five samples of increasing concentrations were injected over the chip surface one after the other in a single cycle. […] The data analysis was performed using BiaEvaluation. The processed signals were fitted to a 1:1 binding model and kinetic constants were extracted. […] 2 min injections at 30 ul/min were performed, after which a 3 min dissociation was monitored. […] Data analysis followed using Scrubber (BioLogic Software, Campbell, Australia). The processed signals were globally fitted to a Langmuir 1:1 binding isotherm and kinetic constants were extracted.

[3] = system: classical pathway of complement activation; assay: ELISA-based complement inhibition assay (antigen-antibody complex initiated, C3b deposition); assay type: biochemical; conditions: for relative activity (rank order) in inhibition of antigen-antibody complex-initiated complement activation: FIG. 4, representative result; for IC50: read-out: IC50, concentration at which the peptides inhibit complement activation by 50%, plasma 1:80 in VB++, average of five datasets
Description: An ELISA-based assay was performed to assess the complement inhibitory ability of the compstatin analogs. Briefly, an antigen-antibody complex was used as an initiator of the classical pathway of complement activation. […] Incubation followed to allow complement activation. The deposition of C3b on the plate was measured by a polyclonal anti-C3 antibody. The percentage of inhibition was plotted against the compstatin concentration and fitted to a logistic dose-response function using OriginPro 8.

[4] = target: T1, Complement C3 (in plasma) (UniProt P01024 23-1663, limits assumed); assay: cell-based or functional assay
T1 sequence (P01024 23-1663 limits assumed): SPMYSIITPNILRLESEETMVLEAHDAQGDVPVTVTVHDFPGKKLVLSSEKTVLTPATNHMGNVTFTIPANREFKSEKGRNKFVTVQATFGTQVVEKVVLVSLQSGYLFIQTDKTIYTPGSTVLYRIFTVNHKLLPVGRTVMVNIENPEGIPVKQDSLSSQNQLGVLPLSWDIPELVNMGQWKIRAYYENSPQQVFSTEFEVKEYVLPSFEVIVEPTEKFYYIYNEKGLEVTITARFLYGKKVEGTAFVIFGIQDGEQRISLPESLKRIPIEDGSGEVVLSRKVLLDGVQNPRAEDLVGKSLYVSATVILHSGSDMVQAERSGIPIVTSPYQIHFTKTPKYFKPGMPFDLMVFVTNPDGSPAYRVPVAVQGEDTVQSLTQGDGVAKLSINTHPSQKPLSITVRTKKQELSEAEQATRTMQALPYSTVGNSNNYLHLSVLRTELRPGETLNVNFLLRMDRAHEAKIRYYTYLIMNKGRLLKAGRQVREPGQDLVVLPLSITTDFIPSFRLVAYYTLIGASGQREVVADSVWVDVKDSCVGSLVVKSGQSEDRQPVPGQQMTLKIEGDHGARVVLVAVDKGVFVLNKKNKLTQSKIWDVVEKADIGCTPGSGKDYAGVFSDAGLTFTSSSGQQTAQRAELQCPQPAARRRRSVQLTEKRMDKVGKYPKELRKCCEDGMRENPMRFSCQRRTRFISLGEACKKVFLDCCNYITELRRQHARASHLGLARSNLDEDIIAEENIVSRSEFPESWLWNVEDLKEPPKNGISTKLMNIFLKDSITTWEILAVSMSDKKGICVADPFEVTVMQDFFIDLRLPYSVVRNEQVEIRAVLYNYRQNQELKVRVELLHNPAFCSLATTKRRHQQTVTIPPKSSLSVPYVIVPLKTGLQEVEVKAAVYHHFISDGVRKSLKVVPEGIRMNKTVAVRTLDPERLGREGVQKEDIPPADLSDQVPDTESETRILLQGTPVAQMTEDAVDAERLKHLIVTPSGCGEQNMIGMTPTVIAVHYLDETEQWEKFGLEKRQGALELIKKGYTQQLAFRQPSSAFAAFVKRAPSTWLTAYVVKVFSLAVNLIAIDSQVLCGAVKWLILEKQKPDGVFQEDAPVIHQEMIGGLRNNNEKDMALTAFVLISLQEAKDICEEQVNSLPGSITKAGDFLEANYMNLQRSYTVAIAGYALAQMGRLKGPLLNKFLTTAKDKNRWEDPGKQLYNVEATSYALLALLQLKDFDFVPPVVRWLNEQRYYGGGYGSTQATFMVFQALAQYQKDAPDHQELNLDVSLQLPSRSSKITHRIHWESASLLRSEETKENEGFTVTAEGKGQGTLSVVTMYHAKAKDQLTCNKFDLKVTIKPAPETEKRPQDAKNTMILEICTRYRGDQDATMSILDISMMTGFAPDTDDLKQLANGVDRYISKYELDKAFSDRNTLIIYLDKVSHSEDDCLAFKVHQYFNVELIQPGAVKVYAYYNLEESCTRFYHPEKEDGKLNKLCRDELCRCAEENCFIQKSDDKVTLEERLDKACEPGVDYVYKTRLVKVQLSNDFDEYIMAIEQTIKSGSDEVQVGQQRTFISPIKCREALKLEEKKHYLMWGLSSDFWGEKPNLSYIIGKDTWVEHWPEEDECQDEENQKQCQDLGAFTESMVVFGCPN

[5] = target: T1, Complement C3 (in plasma); assay: cell-based or functional assay; remark: listed apart in the source

Kd [1]: 2.4 nM | koff [1]: 0.004 s⁻¹ | kon [1]: 1.86e+06 M⁻¹ s⁻¹
Molecule: CP20 compstatin analog (disulfide control) (peptide)

kd [2]: 11 ± 1.9 10^−2 s^−1
Molecule: CC[C@H](C)[C@H](NC(C)=O)C(=O)N[C@H]1CSCC[C@@H](C(=O)N[C@H](C(N)=O)[C@@H](C)O)NC(=O)[C@H](CCCNC(=N)N)NC(=O)[C@H](Cc2c[nH]cn2)NC(=O)[C@H](C)NC(=O)CNC(=O)[C@H](Cc2c[nH]c3ccccc23)NC(=O)[C@H](CC(=O)O)NC(=O)[C@H](CCC(N)=O)NC(=O)[C@H](Cc2c[nH]c3ccccc23)NC(=O)[C@H](C(C)C)NC1=O [Delta-Cth] (Ac-ICVWQDWGAHR[Abu(4-yl)]T-NH2; thioether 2-12)

kd [2]: 0.4 ± 0.1 10^−2 s^−1 | IC50 [3]: 130 ± 50 nM
Molecule: CC[C@H](C)[C@H](NC(C)=O)C(=O)N[C@H]1CSSC[C@@H](C(=O)N(C)[C@H](C(N)=O)[C@@H](C)CC)NC(=O)[C@H](CCCNC(=N)N)NC(=O)[C@H](Cc2c[nH]cn2)NC(=O)[C@H](C)NC(=O)CN(C)C(=O)[C@H](Cc2c[nH]c3ccccc23)NC(=O)[C@H](CC(=O)O)NC(=O)[C@H](CCC(N)=O)NC(=O)[C@H](Cc2cn(C)c3ccccc23)NC(=O)[C@H](C(C)C)NC1=O [CP20, AC-Ic[CV(^1-MeW)QDW(^N-MeG)AHRC](^N-MeI)-NH2, reference compound]
relative activity (rank order) in inhibition of antigen-antibody complex-initiated complement activation [3]: CP20>delta-Cth CP20>4W9A>delta-Cth>gamma-Cth

kd [2]: 1.5 ± 0.4 10^−2 s^−1 | IC50 [3]: 260 ± 90 nM
Molecule: CC[C@H](C)[C@H](NC(C)=O)C(=O)N[C@H]1CSCC[C@@H](C(=O)N(C)[C@H](C(N)=O)[C@@H](C)CC)NC(=O)[C@H](CCCNC(=N)N)NC(=O)[C@H](Cc2c[nH]cn2)NC(=O)[C@H](C)NC(=O)CN(C)C(=O)[C@H](Cc2c[nH]c3ccccc23)NC(=O)[C@H](CC(=O)O)NC(=O)[C@H](CCC(N)=O)NC(=O)[C@H](Cc2cn(C)c3ccccc23)NC(=O)[C@H](C(C)C)NC1=O [Delta-Cth CP20, Ac-Ic[CV(^1-MeW)QDW(^N-MeG)AHRC](^N-MeI)-NH2] (Ac-ICV[Trp(1-Me)]QDW[Sar]AHR[Abu(4-yl)][NMeI]-NH2; thioether 2-12)
relative activity (rank order) in inhibition of antigen-antibody complex-initiated complement activation [3]: CP20>delta-Cth CP20>4W9A>delta-Cth>gamma-Cth

kd [2]: 46.8 ± 5.7 10^−2 s^−1
Molecule: CC[C@H](C)[C@H](NC(C)=O)C(=O)N[C@H]1CCSC[C@@H](C(=O)N[C@H](C(N)=O)[C@@H](C)O)NC(=O)[C@H](CCCNC(=N)N)NC(=O)[C@H](Cc2c[nH]cn2)NC(=O)[C@H](C)NC(=O)CNC(=O)[C@H](Cc2c[nH]c3ccccc23)NC(=O)[C@H](CC(=O)O)NC(=O)[C@H](CCC(N)=O)NC(=O)[C@H](Cc2c[nH]c3ccccc23)NC(=O)[C@H](C(C)C)NC1=O [Gamma-Cth] (Ac-I[Abu(4-yl)]VWQDWGAHRCT-NH2; thioether 2-12)

IC50, inhibition of antigen-antibody complex-initiated (classical pathway) complement activation, C3b deposition ELISA [4]: 130 nM | IC50 (read off the curve) [5]: ~100 nM
B1: CP20 compstatin analog (disulfide control) (peptide)
peptide: Ac-ICV[Trp(1-Me)]QDW[Sar]AHRC[NMeI]-NH2
modifications: disulfide 2-12
SMILES: CC[C@H](C)[C@H](NC(C)=O)C(=O)N[C@H]1CSSC[C@@H](C(=O)N(C)[C@H](C(N)=O)[C@@H](C)CC)NC(=O)[C@H](CCCNC(=N)N)NC(=O)[C@H](Cc2c[nH]cn2)NC(=O)[C@H](C)NC(=O)CN(C)C(=O)[C@H](Cc2c[nH]c3ccccc23)NC(=O)[C@H](CC(=O)O)NC(=O)[C@H](CCC(N)=O)NC(=O)[C@H](Cc2cn(C)c3ccccc23)NC(=O)[C@H](C(C)C)NC1=O

IC50, inhibition of antigen-antibody complex-initiated (classical pathway) complement activation, C3b deposition ELISA [4]: 260 nM | IC50 (read off the curve) [5]: ~300 nM
B2: CP20 delta-Cth (delta-cystathionine CP20 compstatin analog) (peptide)
peptide: ICVWQDWGAHRCI
modifications: N-terminal acetyl (Ac-Ile1); 1-methyl-Trp at position 4; N-methyl-Gly at position 8; N-methyl-Ile at position 13; C-terminal amide (-NH2); C2-C12 thioether bond forming delta-cystathionine
